Results taken from patent publication US6699676B1, “Uses of ouabain and ouabain-like molecules in apoptosis related pathologies” (Corporation du Centre de Recherche du Centre, Hospitalier …, priority 1999, dated 2004).

Tests used:
VSMC-E1A = assay: Chromatin cleavage assay in VSMC-E1A; assay type: cell-based, rat
Experimental: FIG. 2. Effect of ouabain on chromatin cleavage in VSMC-E1A. (A) Kinetics of the accumulation of chromatin fragments in control (curves 1, 3) and ouabain-treated (curves 2, 4) VSMC-E1A in the presence of 10% calf serum (CS, curves 1, 2) or in CS-free medium (curves 3, 4). Mean values ±S.E. obtained in experiments performed in quadruplicate are given. (B) Content of chromatin fragments in VSMC-E1A subjected to 6 hr of incubation in serum-supplied medium with or without 1 mM ouabain, 0.25 μM staurosporine, 1 μM okadaic acid and 350 mM mannitol. Mean values±S.E. obtained in 3 experiments performed in quadruplicate are given. ★, ★★ p<0.05 and 0.001 compared to ouabain-untreated cells. In both experiments, ouabain was added 1 hour before triggering of apoptosis.
Cells were incubated in K^+-containing medium consisting of 91 mM NaCl, 5 mM KCl, 0.9 mM NaH2PO4, 44 mM NaHCO3, 1.8 mM CaCl2, 0.8 mM MgCl2, 33 mM HEPES and 5 mM D-glucose (pH 7.4) (lines 1 and 2) or in K^+-depleted medium (equimolar substitution of KCl by NaCl, line 3) with or without 10% calf serum (CS) and 1 mM ouabain as indicated. In experiments with VSMC-MYC and VSMC-E1A, cells were preincubated for 1 hr with ouabain or with K^+-depleted medium in the presence of CS and then subjected to treatment with serum-free media. After 24 hours (VSMC) or 6 hours (VSMC-MYC and VSMC-E1A), the content of chromatin fragments was measured as described in Experimental Procedures. Mean values±S.E. obtained in 3 experiments performed in quadruplicate (VSMC) or triplicate (VSMC-MYC, VSMC-E1A) are given. ★, ★★ p<0.05 and 0.001 compared to the controls.
To estimate chromatin cleavage, cells were incubated for 1 hr in the presence of 10% calf serum (CS) in the control solution (DMEM, [Na^+]=137 mM; [K^+]=5 mM—line 1) or under equimolar substitution of NaCl by KCl ([Na^+]=14 mM; [K^+]=128 mM—line 2) with or without 1 mM ouabain and then for an additional 6 hours in the same media with or without CS. Intracellular Na^+ and K^+ content was measured as steady-state distribution of isotopes after 24 hours preincubation of cells in control Na^+-enriched solution containing 0.5 μCi/ml ^86Rb or 2 μCilml ^22Na, and additional 6 hours incubation in Na^+—(line 1) or K^+—(line 2) enriched medium, containing 10% CS and isotopes with the same specific activity with or without 1 mM ouabain. For more details see Experimental Procedures. Mean values±S.E. obtained in 3 experiments performed in triplicate (ion content) or quadruplicate (chromatin cleavage) are given. ★p<0.001 compared to ouabain-untreated cells.
VSMC-E1A cells were pretreated with compounds indicated in the left column during 2 hours in DMEM containing 10% calf serum and then additional 3 hours in the absence or presence of calf serum. The increment of the content of chromatin fragments triggered by serum withdrawal in control cells was taken as 100%. Means+S.E. from experiments performed with quadruplicate are given. ★p<0.001 as compared to control.
Cells. VSMC were obtained by explant methods from aortas of 10- to 13-week-old male rats as described previously (17), cultured in DMEM with 10% calf serum, 100 U/ml penicillin, 100 µg/ml streptomycin and used between 10 to 16 passages. Cells transfected with c-myc (VSMC-MYC) and E1A-adenovirus (VSMC-E1A) were obtained in accordance with a previously-described protocol (18,19) and were cultured in the same medium with the addition of 500 µg/ml genticin. Jurkat cells were obtained from the American Type Culture Collection and cultured in RPMI 1640 medium supplied with 10% calf serum, antibiotics, sodium pyruvate, glutamate and β-mercaptoethanol.
Chromatin cleavage assay. Chromatin cleavage in VSMC was estimated by a technique described previously in detail (10). Briefly, VSMC grown in 24-well dishes were labeled for 24 hours in serum-supplied DMEM with [^3H]-thymidine (1 μCi/ml), washed with 2×2 ml of DMEM and incubated in serum-supplied DMEM. […]

caspase-3 [1] = assay: Caspase-3 activity in treated Jurkat cells; assay type: cell-based, human; conditions: for increase of caspase-3 activity: 3 hours, Fas ligand 100 ng/ml, staurosporine 0.25 μM, mannitol 350 mM
Experimental: (§1) FIG. 5. Effect of ouabain on caspase-3 activity in VSMC-E1A (A) and Jurkat cells (B). VSMC-E1A and Jurkat cells were pretreated with 1 mM ouabain for 1 and 2 hours, respectively, and the additions indicated below the bars were delivered in media with 10% calf serum and with the baseline (137/5) or inverse (14/128) [Na^+]o/[K^+]o ratio for 6 (VSMC-E1A) or 3 hours (Jurkat cells). In experiments with VSMC-E1A, calf serum (CS) was omitted where indicated (−). Abbreviations: staur.—staurosporine (0.25 μM), ok.ac.—okadaic acid (1 μM), mann.—mannitol (350 mM); Fas-L—Fas ligand (100 ng/ml). Mean values±S.E. obtained in experiments performed in quadruplicate (A) or triplicate (B) are given. ★p<0.001 compared to ouabain-untreated cells.
(§2) Caspase activity. VSMC-E1A seeded in 20 cm^2 flasks and treated as indicated in FIG. 5 were scratched, transferred to centrifuge tubes, washed twice with PBS and lysed in 0.5 ml of buffer A contaming 50 mM tris-HCl (pH 7.4), 5 mM MgCl2, 1 mM EGTA and 0.1% CHAPS. Then, 50-100 μl of cell lysate was mixed with 600 μl of buffer A containing 1 mM dithiothreitol, 40 μM YVAD-AMC or DEVD-AMC with or without 1 μM of caspase-1 and capspase-3 inhibitors (Ac-YVAD-CHO and Ac-DEVD-CHO, respectively), incubated for 2 hours at 37° C. and diluted 15-fold with 80 mM glycine-NaOH buffer (pH 10). Fluorescence of the samples was measured at ex=365 run and em=465 run and calibrated with AMC in the range of 10 to 100 nM. To measure caspase activity in control and ouabain-treated Jurkat cells, 5 ml of suspension containing ˜2×10^7 cells was transferred onto ice and sedimented. The pellet of cells was washed and treated with 0.3 ml of medium A in the same way as VSMC. Protein content was estimated by Bradford methods.

caspase-3 [2] = assay: Caspase-3 activity in treated VSMC-E1A; assay type: cell-based, rat
Experimental: as §1, §2

Structure (SMILES) | apoptosis triggered by staurosporine and okadaic acid (VSMC-E1A; VSMC-E1A, 1 mM ouabain, FIG. 2b) | Increment of chromatin fragments triggered by serum withdrawal(%) (VSMC-E1A; VSMC-E1A, 1 mM, pretreated 2 hours then 3 hours with or without calf serum, control increment taken as 100%) | Chromatin fragments (%) (VSMC-E1A; VSMC-E1A, 10% CS, 1 mM ouabain, 1 hr preincubation, 6 hours) | Chromatin fragments (%) (VSMC-E1A; VSMC-E1A, CS-free, 1 mM ouabain, 1 hr preincubation, 6 hours) | baseline and serum withdrawal-induced chromatin cleavage (VSMC-E1A; VSMC-E1A, ouabain added 1 hour before, FIG. 2a) | Chromatin fragments (%) (VSMC-E1A; ouabain-treated VSMC-E1A, 1 mM, 10% CS, medium [Na+]o=14, [K+]o=128 mM, 1 hr + 6 hours) | Chromatin fragments (%) (VSMC-E1A; ouabain-treated VSMC-E1A, 1 mM, 10% CS, medium [Na+]o=137, [K+]o=5 mM, 1 hr + 6 hours) | Chromatin fragments (%) (VSMC-E1A; ouabain-treated VSMC-E1A, 1 mM, CS-free, medium [Na+]o=14, [K+]o=128 mM, 1 hr + 6 hours) | Chromatin fragments (%) (VSMC-E1A; ouabain-treated VSMC-E1A, 1 mM, CS-free, medium [Na+]o=137, [K+]o=5 mM, 1 hr + 6 hours) | increment of caspase-3 activity triggered by Fas ligand, staurosporine and hyperosmotic shrinkage (caspase-3 [1]; ouabain) | baseline caspase-3 activity (caspase-3 [1]; pretreatment 2 hours with 1 mM ouabain (from 296±38)) | increment of caspase-3 activity under induction of apoptosis (caspase-3 [2]; 1 mM ouabain, control medium) | caspase-3 activity in apoptosis triggered by okadaic acid (caspase-3 [2]; ouabain, K+-enriched, Na+-depleted medium ([Na+]o/[K+]o=14/128)) | baseline activity of caspase-3 (caspase-3 [2]; pretreatment 1 hour with 1 mM ouabain (from 560±41)) | chromatin cleavage under hyperosmotic shrinkage (VSMC-E1A; control and ouabain-treated VSMC-E1A, 350 mM mannitol, 6 hr) | increase of caspase-3 activity (caspase-3 [1]) [fold] | caspase-3 activity under mannitol-induced cell shrinkage (caspase-3 [2]; 350 mM mannitol, 6 hours) | content of chromatin fragments (VSMC-E1A; VSMC-E1A, 6 hr, serum-supplied medium, 0.25 μM staurosporine, 1 μM okadaic acid) [%] | increase of caspase-3 activity (caspase-3 [2]; 6 hours, staurosporine 0.25 μM, okadaic acid 1 μM) [fold]
C[C@@H]1O[C@@H](O[C@H]2C[C@@H](O)[C@]3(CO)[C@H]4[C@H](O)C[C@]5(C)[C@@H](C6=CC(=O)OC6)CC[C@]5(O)[C@@H]4CC[C@]3(O)C2)[C@H](O)[C@H](O)[C@H]1O [Ouabain, 1β,3β,5,11α,14,19-hexahydroxycard 20 [22]-enolide 3-[6-deoxy-α-L-mannopyrano-sidel]] | blocked | 21 ± 3 | 1.5 ± 0.3 | 5.7 ± 0.6 | blocked baseline as well as serum withdrawal-induced chromatin cleavage | 5.0 | 1.9 | 32.0 | 6.3 | Neither ouabain nor equimolar substitution of Na^+ by K^+ in the incubation medium affected the increment of caspase-3 activity | 497±67 pmol (mg prot)^−1 hr^−1 | abolished the increment of caspase-3 activity | did not observe any effect | 101±39 pmol (mg prot)^−1 hr^−1 |  |  |  |  | 
OC[C@@H](O)[C@@H](O)[C@H](O)[C@H](O)CO [mannitol] |  |  |  |  |  |  |  |  |  |  |  |  |  |  | insensitive to hyperosmotic shrinkage | ~10 | insensitive to mannitol-induced cell shrinkage |  | 
CN[C@@H]1C[C@H]2O[C@@](C)([C@@H]1OC)n1c3ccccc3c3c4c(c5c6ccccc6n2c5c31)C(=O)NC4 [staurosporine] |  |  |  |  |  |  |  |  |  |  |  |  |  |  |  | ~20 |  | 30.1±4.7 | 8
